Where a SMILES comes first, the peptide text is derived from it. The star is where a group is joined. Cbz = O=C(OCc1ccccc1)*
Tests used:
Assay type in all cases: cell-based
AvBD9 [1] = experiment: AvBD9 gene expression in chicken HD11 macrophage cells (real-time RT-PCR); conditions: for Effect of pathway inhibitor on lactose-induced AvBD9 expression: 1 h inhibitor pretreatment, then 0.2 M lactose 24 h; for Synergy with butyrate in AvBD9 induction: 2 mM butyrate with 0.2 M sugar, 12 h; for Induction of AvBD9 gene expression by sugars: 0.2 M, up to 48 h; for Efficacy of AvBD9 induction compared with butyrate: 24 h stimulation; for Induction of AvBD9 gene expression: compound alone, different concentrations
Description: (§1) Chicken HD11 macrophage cell line was obtained from USDA-Agricultural Research Services (ARS), and chicken HTC macrophage cell line was secured from USDA-ARS. Both HD11 and HTC macrophage cells were propagated in RPMI 1640 containing 10% fetal bovine serum (FBS), 100 μg/ml streptomycin, and 100 U/ml penicillin. Peripheral blood mononuclear cells (PBMCs) were isolated from EDTA-anticoagulated chicken blood by gradient centrifugation with Histopaque 1077 (Sigma) following manufacturer's instructions. Briefly, chicken blood was overlaid onto Histopaque 1077 (Sigma) at 1:1 ratio, and centrifuged at 400×g for 30 min. Interphase containing PBMCs was aspirated and washed 3 times with PBS at 250×g for 10 min. Cell pellet was re-suspended with RPMI 1640, supplemented with 10% FBS, 100 μg/ml streptomycin, 100 U/ml penicillin, and 20 mM HEPES. After being seeded overnight at 2×10^6/well in 6-well tissue culture plates, cells were treated with different concentrations of chemicals. For signaling studies, cells were pre-treated with different signaling agonists or inhibitors for 1 h, followed by stimulation with sodium butyrate or its structural analogs for another 24 h. Cells were then lysed in RNAzol (Molecular Research Center, Cincinnati, Ohio) for RNA extraction.
(§2) Total RNA was extracted from chicken cells and tissues using RNAzol RT (Molecular Research Center) and quantitated using Nanodrop 1000 (Nanodrop Products, Wilmington, Del.). RNA (0.3 μg) was reverse transcribed in 4-μl reactions using Maxima First Strand cDNA Synthesis Kit (Thermo Fisher Scientific, Pittsburgh, Pa.) according to the manufacturer's instructions. The cDNA was then diluted 10 times with RNase-free water prior to real-time PCR analysis of AvBD9 and GAPDH as were described previously. The primers used for AvBD9 primers were […] (SEQ ID NO: 1, forward) and […] (SEQ ID NO: 2, reverse), whereas the primers for chicken glyceraldehyde-3-phosphate dehydrogenase (GAPDH) were […] (SEQ ID NO: 3, forward) and […] (SEQ ID NO: 4, reverse). QuantiTect SYBR Green PCR Kit (Qiagen, Valencia, Calif.) was used in 10 μl reactions with 4 and 1 μl of diluted cDNA for AvBD9 and GAPDH, respectively. Real-time PCR was performed with an initial activation at 95° C. for 10 min, followed by 40 cycles at 94° C. for 15 sec, 55° C. for 20 sec and 72° C. for 30 sec. Melting curve analysis was carried out to confirm the specificity of PCR amplification. Relative fold change in the AvBD9 gene expression was calculated using the ΔΔCt method normalized against the GAPDH levels.

AvBD9 [2] = experiment: AvBD9 gene expression in chicken peripheral blood mononuclear cells (PBMCs) (real-time RT-PCR); conditions: for Effect of pathway inhibitor on butyrate-induced AvBD9 expression: 1 h inhibitor pretreatment, then 2 mM sodium butyrate 24 h; for AvBD9 gene expression, maximum fold increase, compound alone: 50 to 250 μM, dose-dependent; for Effect on AvBD9 induction, compound alone: without butyrate
Description: as §1, §2

AvBD9 [3] = experiment: AvBD9 gene expression in chicken jejunal explants (real-time RT-PCR); conditions: 2 mM butyrate and/or 0.1 M lactose, 24 h
Description: A segment of chicken jejunum was harvested from 1- to 2-week-old broiler chickens, washed thoroughly in cold PBS containing 100 μg/ml of gentamicin, 100 U/ml penicillin, and 100 μg/ml streptomycin, and then cut into a series of 0.5-cm-long segments. Jejunal segments were placed individually in 6-well plates and cultured in 4 ml RPMI 1640 containing 10% FBS, 20 mM HEPES, 100 U/ml penicillin, 100 μg/ml streptomycin, and 100 μg/ml gentamicin. […] Jejunal segments were homogenized in RNAzol RT for RNA extraction.
(§3) The cDNA was then diluted 10 times with RNase-free water prior to real-time PCR analysis of AvBD9 and GAPDH as were described previously. The primers used for AvBD9 primers were […] (SEQ ID NO: 1, forward) and […] (SEQ ID NO: 2, reverse), whereas the primers for chicken glyceraldehyde-3-phosphate dehydrogenase (GAPDH) were […] (SEQ ID NO: 3, forward) and […] (SEQ ID NO: 4, reverse). QuantiTect SYBR Green PCR Kit (Qiagen, Valencia, Calif.) was used in 10 μl reactions with 4 and 1 μl of diluted cDNA for AvBD9 and GAPDH, respectively.

acetyl-histone 4 (Ac-H4) = experiment: Histone 4 acetylation in chicken HD11 cells (immunoblotting, Ac-H4); conditions: 2 mM butyrate and/or 0.2 M lactose, 6 h
Description: After stimulation with various compounds, chicken HD11 cells were washed with PBS and lysed in the RIPA lysis buffer (Santa Cruz Biotechnology, Dallas, Tex.). Protein concentration was measured by the Bradford Assay (Bio-Rad, Hercules, Calif.). For the determination of histone 4 acetylation levels, 20 μg of proteins was separated by 12.5% SDS-PAGE gel and then transferred to a PVDF membrane. After overnight blocking in the blocking buffer at 4° C., the membrane was incubated with a primary rabbit antibody against acetyl-histone 4 (Ac-H4) (Cell Signaling, #8647) in the blocking buffer for 1 h at room temperature. After three washes, the membrane was incubated with an alkaline phosphatase-conjugated goat anti-rabbit IgG antibody (Sigma-Aldrich, St. Louis, Mo.) for 45 min at room temperature. Another membrane was prepared in parallel, but incubated with a rabbit antibody against β-Actin (#A2103) to reveal a similar amount of protein loading. The signaling was visualized by incubation with the ECL reagent (Santa Cruz Biotechnology).

AvBD9 [4] = experiment: AvBD9 gene expression in chicken peripheral blood mononuclear cells (PBMCs) (real-time RT-PCR); conditions: 1 h inhibitor pretreatment, then 10 μM quercetin 24 h
AvBD9 [5] = experiment: AvBD9 gene expression in chicken HTC macrophage cells (real-time RT-PCR)
Description: For signaling studies, cells were pre-treated with different signaling agonists or inhibitors for 1 h, followed by stimulation with sodium butyrate or its structural analogs for another 24 h.
as §3

Nc1ncnc2c1ncn2C1CCCO1 (centres unmarked) [SQ22536, reference compound]
Effect of pathway inhibitor on lactose-induced AvBD9 expression (AvBD9 [1]): no influence

C[S+]([O-])c1ccc(-c2nc(-c3ccncc3)c(-c3ccc(F)cc3)[nH]2)cc1 (centres unmarked) [SB203580, reference compound]
Effect of pathway inhibitor on lactose-induced AvBD9 expression (AvBD9 [1]): no influence
Effect of pathway inhibitor on butyrate-induced AvBD9 expression (AvBD9 [2]): substantial, but not complete reduction

OC[C@H]1O[C@H](O[C@H]2O[C@H](CO)[C@@H](O)[C@H](O)[C@H]2O)[C@H](O)[C@@H](O)[C@@H]1O [trehalose]
Synergy with butyrate in AvBD9 induction (AvBD9 [1]): clear synergy

O=C(CO)[C@@H](O)[C@H](O)[C@H](O)CO [fructose]
Induction of AvBD9 gene expression by sugars (AvBD9 [1]): stimulated AvBD9 gene expression in a time-dependent manner

O=C[C@H](O)[C@@H](O)[C@@H](O)[C@H](O)CO [galactose]
Synergy with butyrate in AvBD9 induction (AvBD9 [1]): clear synergy
Induction of AvBD9 gene expression by sugars (AvBD9 [1]): stimulated AvBD9 gene expression in a time-dependent manner

COc1cccc(-c2cc(=O)c3ccccc3o2)c1N [PD98059, reference compound]
Effect of pathway inhibitor on lactose-induced AvBD9 expression (AvBD9 [1]): synergized substantially
Effect of pathway inhibitor on butyrate-induced AvBD9 expression (AvBD9 [2]): strong synergistic AvBD9 induction

CCCC(=O)OCc1ccccc1 [benzyl butyrate, Benzyl butyrate]
Efficacy of AvBD9 induction compared with butyrate (AvBD9 [1]): comparable efficacy to butyrate
Induction of AvBD9 gene expression (AvBD9 [1]; 24 h): dose-dependently induced

CCCC(=O)[O-].[Na+] [butyrate, Sodium butyrate]
AvBD9 induction, peak fold (AvBD9 [1]; 2 mM butyrate alone, 24 h): approximately 1,750 fold
AvBD9 induction, fold (AvBD9 [3]): 100 fold
Histone 4 acetylation (acetyl-histone 4 (Ac-H4)): minimum histone 4 acetylation

CCCC(CCC)C(=O)[O-].[Na+] [sodium valproate, reference compound]
Induction of AvBD9 gene expression (AvBD9 [1]; 24 h): dose-dependent stimulation

O=C(O)c1cccnc1Nc1cccc(C(F)(F)F)c1 [niflumic acid]
AvBD9 gene expression, maximum fold increase, compound alone (AvBD9 [2]): ~14,000 fold

S=C(S)N1CCCC1 [PDTC]
Effect of pathway inhibitor on quercetin-mediated AvBD9 expression (AvBD9 [4]): did not show much effect

CC(/C=C/C(=O)NO)=C\[C@@H](C)C(=O)c1ccc(N(C)C)cc1 [trichistatin A, reference compound]
Induction of AvBD9 gene expression (AvBD9 [1]; 24 h): dose-dependent stimulation

CC(C)C[C@@H](C=O)NC(=O)[C@H](CC(C)C)NC(=O)[C@H](CC(C)C)NC(=O)OCc1ccccc1 [MG132] (Cbz-Leu-Leu-Leu-aldehyde)
Effect of pathway inhibitor on butyrate-induced AvBD9 expression (AvBD9 [2]): nearly complete abolishment

O=C(CCCCCCC(=O)Nc1ccccc1)NO [SAHA, suberoylanilide hydroxamic acid, reference compound]
Induction of AvBD9 gene expression (AvBD9 [1]; 24 h): dose-dependent stimulation

CN(C)c1ccc(C(=O)NCCCCCC(=O)NO)cc1 [CAY10398, reference compound]
Induction of AvBD9 gene expression (AvBD9 [1]; 24 h): dose-dependent stimulation

Nc1ccc2ncnc(NCCc3ccc(Oc4ccccc4)cc3)c2c1 [QNZ, reference compound]
Effect of pathway inhibitor on lactose-induced AvBD9 expression (AvBD9 [1]): no influence

O=C(O)CCc1ccccc1 [hydrocinnamic acid, Hydrocinnamic acid]
Induction of AvBD9 gene expression (AvBD9 [1]; 24 h): dose-dependently induced

C[C@H]1O[C@@H](n2cnc3c(N)ncnc32)C[C@@H]1O [DDA, 2′-5′-dideoxyadenosine]
Effect of pathway inhibitor on butyrate-induced AvBD9 expression (AvBD9 [2]): strikingly strong, dose-dependent increase

CCCC(=O)Nc1ncnc2c1ncn2[C@@H]1O[C@@H]2COP(=O)(O)O[C@H]2[C@H]1OC(=O)CCC [dibutyryl cAMP, reference compound]
Efficacy of AvBD9 induction compared with butyrate (AvBD9 [1]): comparable efficacy to butyrate
Induction of AvBD9 gene expression (AvBD9 [1]; 24 h): dose-dependently induced

O=c1c(O)c(-c2ccc(O)c(O)c2)oc2cc(O)cc(O)c12 [quercetin]
Reduction of AvBD9 induction at 48 h relative to 24 h (AvBD9 [5]; 40 μM quercetin): 210 fold
AvBD9 expression, fold increase at peak (AvBD9 [5]; 40 μM quercetin, 24 h): approximately 500 fold
Concentration giving peak AvBD9 response (AvBD9 [5]; quercetin alone, 24 h): 40 µM
Induction of AvBD9 gene expression (dose dependence) (AvBD9 [5]; quercetin alone, 24 h): dose-dependent induction
AvBD9 expression, fold increase (AvBD9 [2]; 40 μM quercetin alone, 24 h): approximately 6,500 fold
Induction of AvBD9 (dose dependence) (AvBD9 [2]; quercetin alone, 24 h): dose-dependently induced

C=C(C)[C@@H](CC=C(C)C)C[C@@]12C[C@@H](CC=C(C)C)C(C)(C)[C@@](CC=C(C)C)(C(=O)C(C(=O)c3ccc(O)c(O)c3)=C1O)C2=O [garcinol]
AvBD9 induction, peak fold increase, compound alone (AvBD9 [2]; garcinol without butyrate): approximately 7 fold

CS(=O)(=O)Nc1ccc([N+](=O)[O-])cc1Oc1ccccc1 [nimesulide]
AvBD9 gene expression, maximum fold increase, compound alone (AvBD9 [2]): approximately 70 fold

OC[C@H]1O[C@@H](O[C@H]2[C@H](O)[C@@H](O)C(O)O[C@@H]2CO)[C@H](O)[C@@H](O)[C@H]1O (some centres unmarked) [lactose]
AvBD9 induction, maximum fold (AvBD9 [1]; 0.2 M lactose alone, 6 h): 350 fold
Induction of AvBD9 gene expression by sugars (AvBD9 [1]): stimulated AvBD9 gene expression in a time-dependent manner
AvBD9 induction, fold (AvBD9 [3]): 15 fold
Histone 4 acetylation (acetyl-histone 4 (Ac-H4)): no impact

Oc1ccc(C=Cc2cc(O)cc(O)c2)cc1 [resveratrol]
Effect on AvBD9 induction, compound alone (AvBD9 [2]): modest effect

CCCCCCCCCCCCCCCc1cccc(O)c1C(=O)O [anacardic acid]
Effect on AvBD9 induction, compound alone (AvBD9 [2]): modest effect

OC[C@@H](O)[C@@H](O)[C@H](O)[C@H](O)CO [mannitol]
Synergy with butyrate in AvBD9 induction (AvBD9 [1]): comparably synergy

CCCC(=O)OC/C=C/c1ccccc1 [trans-cinnamyl butyrate]
Induction of AvBD9 gene expression (AvBD9 [1]; 24 h): dose-dependently induced

CCCC(=O)OCC(COC(=O)CCC)OC(=O)CCC [glyceryl tributyrate, Glyceryl tributyrate]
Efficacy of AvBD9 induction compared with butyrate (AvBD9 [1]): comparable efficacy to butyrate
Induction of AvBD9 gene expression (AvBD9 [1]; 24 h): dose-dependently induced

Reference: patent US20190054057A1, “IMMUNE BOOSTING DIETARY COMPOUNDS FOR DISEASE CONTROL AND PREVENTION” (THE BOARD OF REGENTS FOR OKLAHOMA STATE UNIVERSITY OFFICE …, priority 2016, published 2019)
